The source of these data is US6407103B2, “Indeno [1,2-c] pyrazol-4-ones and their uses” (Bristol-Myers Squibb Pharma Company, priority 1998, dated 2002).

Structures can show the parent of a compound that is named as a salt. Some results are limits rather than exact numbers.

One may read the melting point as the temperature, or range, at which the solid turns liquid.

Turning to `O=C(Nc1cccc2c1C(=O)c1c-2n[nH]c1-c1ccc(C(=O)NC2CCCNC2)s1)NN1CCOCC1` (stereo not shown) (as salt: TFA) [Example CLXVIII, 3-(5-((3-piperidyl)aminocarbonyl)-2-thienyl)-5-(morpholinocarbamoylamino)indeno[1,2-c]pyrazol-4-one], the melting point was more than 300 °C.
`NC1CCCC(NC(=O)c2ccc(-c3[nH]nc4c3C(=O)c3c(NC(=O)NN5CCOCC5)cccc3-4)s2)C1` (stereo not shown) (as salt: TFA) [Example CLXX, 3-(5-((3-aminocyclohexyl)aminocarbonyl)-2-thienyl)-5-(morpholinocarbamoylamino)indeno[1,2-c]pyrazol-4-one] yielded a melting point of more than 300 °C.
The result for `CC(C)(C)OC(=O)NC1CCCC(NC(=O)c2ccc(-c3[nH]nc4c3C(=O)c3c(NC(=O)NN5CCOCC5)cccc3-4)s2)C1` (stereo not shown) (as salt: TFA) [Example CLXXI, 3-(5-((3-(t-butoxycarbonylamino)cyclohexyl)aminocarbonyl)-2-thienyl)-5-(morpholinocarbamoylamino)indeno[1,2-c]pyrazol-4-one] reads more than 300 °C.
The result for `CN(C)CC1CCCCN1C(=O)c1ccc(-c2[nH]nc3c2C(=O)c2c(NC(=O)NN4CCOCC4)cccc2-3)s1` (stereo not shown) (as salt: TFA) [Example CLXXII, 3-(5-(2-(N,N-dimethylaminomethyl)piperidinocarbonyl)-2-thienyl)-5-(morpholinocarbamoylamino)indeno[1,2-c]pyrazol-4-one] reads more than 300 °C; that for `CCN(CC)CC1CCCCN1C(=O)c1ccc(-c2[nH]nc3c2C(=O)c2c(NC(=O)NN4CCOCC4)cccc2-3)s1` (stereo not shown) (as salt: TFA) [Example CLXXIII, 3-(5-(2-(N,N-diethylaminomethyl)piperidinocarbonyl)-2-thienyl)-5-(morpholinocarbamoylamino)indeno[1,2-c]pyrazol-4-one], 210 °C.
With `O=C(Nc1cccc2c1C(=O)c1c-2n[nH]c1-c1ccc(C(=O)N2CCCC2)s1)NN1CCOCC1` (as salt: TFA) [Example CLXXIV, 3-(5-pyrrolidinocarbonyl-2-thienyl)-5-(morpholinocarbamoylamino)indeno[1,2-c]pyrazol-4-one], the melting point was more than 300 °C.
For `CN(C(=O)OC(C)(C)C)[C@H]1CCN(C(=O)c2ccc(-c3[nH]nc4c3C(=O)c3c(NC(=O)NN5CCOCC5)cccc3-4)s2)C1` (as salt: TFA) [Example CLXXIX, 3-(5-(3(S)-(N-methyl-t-butoxycarbonylamino)pyrrolidinocarbonyl)-2-thienyl)-5-(morpholinocarbamoylamino)indeno[1,2-c]pyrazol-4-one], the melting point is more than 300 °C.
The result for `NC1CCN(C(=O)c2ccc(-c3[nH]nc4c3C(=O)c3c(NC(=O)NN5CCOCC5)cccc3-4)s2)C1` (stereo not shown) (as salt: TFA) [Example CLXXV, 3-(5-(3-aminopyrrolidinocarbonyl)-2-thienyl)-5-(morpholinocarbamoylamino)indeno[1,2-c]pyrazol-4-one] reads 201 °C; that for `CC(=O)N[C@H]1CCN(C(=O)c2ccc(-c3[nH]nc4c3C(=O)c3c(NC(=O)NN5CCOCC5)cccc3-4)s2)C1` (as salt: TFA) [Example CLXXVII, 3-(5-(3(S)-acetamidopyrrolidinocarbonyl)-2-thienyl)-5-(morpholinocarbamoylamino)indeno[1,2-c]pyrazol-4-one], 264 °C; that for `CC(=O)N(C)[C@H]1CCN(C(=O)c2ccc(-c3[nH]nc4c3C(=O)c3c(NC(=O)NN5CCOCC5)cccc3-4)s2)C1` (as salt: TFA) [Example CLXXVIII, 3-(5-(3(S)-(N-methylacetamido)pyrrolidinocarbonyl)-2-thienyl)-5-(morpholinocarbamoylamino)indeno[1,2-c]pyrazol-4-one], more than 300 °C.
Regarding `CN(C)C1CCN(C(=O)c2ccc(-c3[nH]nc4c3C(=O)c3c(NC(=O)NN5CCOCC5)cccc3-4)s2)C1` (stereo not shown) (as salt: TFA) [Example CLXXX, 3-(5-(3-(N,N-dimethylamino)pyrrolidinocarbonyl)-2-thienyl)-5-(morpholinocarbamoylamino)indeno[1,2-c]pyrazol-4-one], the melting point is 216 °C.
The result for `CN(C)[C@@H]1CCN(C(=O)c2ccc(-c3[nH]nc4c3C(=O)c3c(NC(=O)NN5CCOCC5)cccc3-4)s2)C1` (as salt: TFA) [Example CLXXXI, 3-(5-(3(R)-(N,N-dimethylamino)pyrrolidinocarbonyl)-2-thienyl)-5-(morpholinocarbamoylamino)indeno[1,2-c]pyrazol-4-one] reads 265 °C.
Compound `CN(C)[C@H]1CCN(C(=O)c2ccc(-c3[nH]nc4c3C(=O)c3c(NC(=O)NN5CCOCC5)cccc3-4)s2)C1` (as salt: TFA) [Example CLXXXII, 3-(5-(3(S)-(N,N-dimethylamino)pyrrolidinocarbonyl)-2-thienyl)-5-(morpholinocarbamoylamino)indeno[1,2-c]pyrazol-4-one] gave a melting point of 264 °C.
Next, `CN1CCC(CNC(=O)c2ccc(-c3[nH]nc4c3C(=O)c3c(NC(=O)NN5CCOCC5)cccc3-4)s2)C1` (stereo not shown) (as salt: TFA) [Example CLXXXIII, 3-(5-((1-methylpyrrolidin-3-yl)methylaminocarbonyl)-2-thienyl)-5-(morpholinocarbamoylamino)indeno[1,2-c]pyrazol-4-one]: 151 °C; `O=C(Nc1cccc2c1C(=O)c1c-2n[nH]c1-c1ccc(C(=O)N2CCC[C@@H]2CN2CCCC2)s1)NN1CCOCC1` (as salt: TFA) [Example CLXXXIV, 3-(5-(2(R)-(pyrrolidinomethyl)pyrrolidinocarbonyl)-2-thienyl)-5-(morpholinocarbamoylamino)indeno[1,2-c]pyrazol-4-one]: 166 °C.
The result for `O=C(Nc1cccc2c1C(=O)c1c-2n[nH]c1-c1ccc(C(=O)N2CCC[C@H]2CO)s1)NN1CCOCC1` (as salt: TFA) [Example CLXXXV, 3-(5-(2(S)-(hydroxymethyl)pyrrolidinocarbonyl)-2-thienyl)-5-(morpholinocarbamoylamino)indeno[1,2-c]pyrazol-4-one] reads 267 °C.
The result for `COC[C@H]1CCCN1C(=O)c1ccc(-c2[nH]nc3c2C(=O)c2c(NC(=O)NN4CCOCC4)cccc2-3)s1` (as salt: TFA) [Example CLXXXVI, 3-(5-(2(R)-(methoxymethyl)pyrrolidinocarbonyl)-2-thienyl)-5-(morpholinocarbamoylamino)indeno[1,2-c]pyrazol-4-one] reads 262 °C; that for `O=C(Nc1cccc2c1C(=O)c1c-2n[nH]c1-c1ccc(C(=O)N2CCC[C@H]2CNc2ccccc2)s1)NN1CCOCC1` (as salt: TFA) [Example CLXXXVII, 3-(5-(2(S)-(phenylaminomethyl)pyrrolidinocarbonyl)-2-thienyl)-5-(morpholinocarbamoylamino)indeno[1,2-c]pyrazol-4-one], more than 300 °C.
In turn, `COC[C@H]1CCCN1NC(=O)c1ccc(-c2[nH]nc3c2C(=O)c2c(NC(=O)NN4CCOCC4)cccc2-3)s1` (as salt: TFA) [Example CLXXXVIII, 3-(5-(2(R)-(methoxymethyl)pyrrolidinoaminocarbonyl)-2-thienyl)-5-(morpholinocarbamoylamino)indeno[1,2-c]pyrazol-4-one] registered a melting point of 266 °C.
Next, `CNc1ccc(NC(=O)c2ccc(-c3[nH]nc4c3C(=O)c3c(NC(=O)NN5CCOCC5)cccc3-4)s2)cc1` (as salt: TFA) [Example CXCVI, 3-(5-((4-methylaminophenyl)aminocarbonyl)-2-thienyl)-5-(morpholinocarbamoylamino)indeno[1,2-c]pyrazol-4-one]: 230 °C; `CC(=O)Nc1ccc(NC(=O)c2ccc(-c3[nH]nc4c3C(=O)c3c(NC(=O)NN5CCOCC5)cccc3-4)s2)cc1` (as salt: TFA) [Example CXCVII, 3-(5-((4-acetamidophenyl)aminocarbonyl)-2-thienyl)-5-(morpholinocarbamoylamino)indeno[1,2-c]pyrazol-4-one]: 253 °C; `CCN(CC)c1ccc(NC(=O)c2ccc(-c3[nH]nc4c3C(=O)c3c(NC(=O)NN5CCOCC5)cccc3-4)s2)cc1` (as salt: TFA) [Example CXCVIII, 3-(5-(4-(diethylamino)phenylaminocarbonyl)-2-thienyl)-5-(morpholinocarbamoylamino)indeno[1,2-c]pyrazol-4-one]: 198 °C.
Take `O=C(Nc1cccc2c1C(=O)c1c-2n[nH]c1-c1ccc(C(=O)N2CCNCC2)s1)NN1CCOCC1` (as salt: TFA) [Example CXLIX, 3-(5-piperazinocarbonyl-2-thienyl)-5-(morpholinocarbamoylamino)indeno [1,2-c]pyrazol-4-one]: the melting point was found to be 241 °C.
Next, `O=C(Nc1cccc2c1C(=O)c1c-2n[nH]c1-c1ccc(C(=O)NN2CCCC2)s1)NN1CCOCC1` (as salt: TFA) [Example CXLVI, 3-(5-pyrrolidinoaminocarbonyl-2-thienyl)-5-(morpholinocarbamoylamino)indeno [1,2-c]pyrazol-4-one]: 213 °C; `O=C(Nc1cccc2c1C(=O)c1c-2n[nH]c1-c1ccc(C(=O)NN2CCCCC2)s1)NN1CCOCC1` (as salt: TFA) [Example CXLVII, 3-(5-piperidinoaminocarbonyl-2-thienyl)-5-(morpholinocarbamoylamino)indeno [1,2-c]pyrazol-4-one]: 189 °C.
The compound `COc1ccc(-c2[nH]nc3c2C(=O)c2c(NC(=O)Cc4ccc5c(c4)OCO5)cccc2-3)cc1` (hydrate or solvate) [Example XVII, 3-(4-methoxyphenyl)-5-((3,4-methylenedioxyphenyl)acetamido)indeno[1,2-c]pyrazol-4-one] displayed a melting point of 297 °C.
As for `COc1ccc(-c2[nH]nc3c2C(=O)c2c(NC(=O)N[C@@H]4CCCC[C@@H]4N)cccc2-3)cc1` (relative stereo) [Example LXVII, 3-(4-methoxyphenyl)-5-((cis-2-aminocyclohexylcarbamoyl)amino)indeno[1,2-c]pyrazol-4-one], the melting point was more than 300 °C.
Next, `NC(=O)Nc1cccc2c1C(=O)c1c-2n[nH]c1-c1ccsc1` [Example C, 3-(3-thienyl)-5-(carbamoylamino)indeno[1,2-c]pyrazol-4-one]: more than 280 °C.
